Laboratory results as given in patent publication US20250282828A1, “PEPTIDES FOR THE TREATMENT OF RESPIRATORY INFECTIONS OF VIRAL ORIGIN” (CENTRO DE INGENIERÍA GENÉTICA Y BIOTECNOLOGÍA, priority 2020, published 2025).
No end group written: not given here.

How the values were obtained:
[1] = test system: CSF virus Margarita strain; conditions: 72 h
[2] = test system: Mebus strain of bovine coronavirus; test: Inhibition of bovine coronavirus replication in MDBK cells (CPE, viral RNA RT-qPCR); assay type: cell-based; conditions: MOI 0.01, 120 hours
Protocol: To evaluate the antiviral effect of this peptide, bovine kidney cells known as MDBK were seeded in 24-well plates, at 280,000 cells per well, in DMEM culture medium with 10% fetal calf serum (FBS). The plates were incubated in a humid environment at 37° C. and 5% CO2. […] Once this treatment time elapsed, the culture medium was removed and the cells were infected with the Mebus strain of bovine coronavirus for 1 hour, in 200 μL of serum-free DMEM medium, at a multiplicity of infection (MOI) of 0.01 in a humid environment at 37° C. and 5% CO2. Subsequently, the volume of each well was brought up to 1 mL with serum-free DMEM medium in the presence of the peptide. Incubation for 120 hours was carried out, and cell-culture viability was evaluated by the method of metabolic reduction of MTT. To do this, the culture medium was removed. Two-hundred microliters of MTT were added to each well, and the plate was incubated for 2 to 4 hours at 37° C., 5% CO2 and 95% humidity. Subsequently, 300 μL of isobutyl alcohol were added and the plate was shaken for 1 hour. As an alternative to the MTT method, cells were stained with crystal violet (0.1%). Finally, the absorbance in each well was determined at 570 nm in a plate reader (Amersham). The antiviral effect was expressed as percent of inhibition of the cytopathic effect (CPE) (FIG. 1A) and inhibition of viral RNA (FIG. 1B) by RT-qPCR.

p24 (HIV) = p24 (HIV) (Human immunodeficiency virus type 1 group M subtype B, UniProt P04591); test: BIACORE surface plasmon resonance interaction with immobilized peptide; assay type: binding, HIV-1
AdV 7 Gomen strain = test: Adenovirus type 7 replication in bronchial HAE (qPCR); assay type: cell-based; conditions: 50 μM, 24 hours
[3] = biological target: T1, Dengue 2 virus capsid protein (Dengue virus type 2, UniProt P29990); test: BIACORE surface plasmon resonance interaction with immobilized peptide; assay type: binding
T1 construct: with the Dengue 2 virus capsid protein
T1 sequence (P29990 1-100 limits assumed): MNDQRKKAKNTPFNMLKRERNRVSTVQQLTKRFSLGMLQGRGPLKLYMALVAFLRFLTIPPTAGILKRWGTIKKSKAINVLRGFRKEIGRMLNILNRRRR

NS1-D2 (Dengue) = biological target: T2, NS1-D2 (Dengue) (Dengue virus type 2, UniProt P29990); test: as above; assay type: binding, Dengue virus 2
T2 construct: the non-structural protein 1 of the Dengue virus 2 (NS1-D2)
T2 sequence (P29990 776-1127 limits assumed): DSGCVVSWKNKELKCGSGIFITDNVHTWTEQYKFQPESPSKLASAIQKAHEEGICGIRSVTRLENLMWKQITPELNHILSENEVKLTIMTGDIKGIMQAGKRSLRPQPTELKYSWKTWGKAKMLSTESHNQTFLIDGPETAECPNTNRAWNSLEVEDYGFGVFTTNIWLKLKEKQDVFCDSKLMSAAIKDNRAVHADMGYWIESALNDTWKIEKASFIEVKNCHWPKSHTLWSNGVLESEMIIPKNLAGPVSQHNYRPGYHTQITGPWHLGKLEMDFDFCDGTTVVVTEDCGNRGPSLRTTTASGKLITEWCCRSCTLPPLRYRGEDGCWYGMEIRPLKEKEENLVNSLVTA

[4] = test system: herpes simplex virus type 1 (HSV-1); test: HSV-1 replication in primary explants of human nasal mucosa (qPCR); assay type: cell-based; conditions: 100 μM, 36 hours
Protocol: The replication of herpes simplex virus type 1 (HSV-1) was performed in primary explants of human nasal mucosa, according to Glorieux et al. (Glorieux et al. 2011, PLoS ONE, 6(7): e22160, doi: 10.1371/journal.pone.0022160). […] Afterwards, the cultures were washed and kept at 37° C. and 5% CO2 for 36 hours, in presence of the peptides in culture medium. The cultures were harvested, and HSV-1 was quantified by qPCR. The percentages of viral inhibition ranged from 70 to 92% in presence of the peptides (Table 5).

pAb anti-SEQ ID NO: 1 = test: BIACORE surface plasmon resonance interaction with immobilized peptide; assay type: binding, rabbit

In the case of RVTQMNLNDRLASLYDKV [SEQ ID NO: 1], the IC50 [1] is reported as 300 nM, the “antiviral effect on bovine coronavirus infection (inhibition of CPE, viral RNA)” value [2] is reported as “exerts an antiviral effect” and the interaction (p24 (HIV)) is reported as “absence of interaction”. For the same sequence, the “Adenovirus Ad7 Inhib. %” value (AdV 7 Gomen strain) was 68%, the Kd [3] was 1.67 nM and the Rmax [3] was 409 RU. For the same sequence, the interaction [3] was “concentration dependent interaction”, the kd [3] was 0.000413 s⁻¹ and the kon ([3]; read-out: ka) was 247000 M⁻¹ s⁻¹. For the same sequence, the Kd (NS1-D2 (Dengue)) was 769 nM, the Rmax (NS1-D2 (Dengue)) was 1.86 RU and the interaction (NS1-D2 (Dengue)) was “showed interaction”. For the same sequence, the kd (NS1-D2 (Dengue)) was 1.02e-05 s⁻¹, the kon (NS1-D2 (Dengue); read-out: ka) was 13.3 M⁻¹ s⁻¹ and the “Herpes simplex HSV-1 Inhib. %” value [4] was 92%. For the same sequence, the Kd (pAb anti-SEQ ID NO: 1) was 115 nM, the ka (pAb anti-SEQ ID NO: 1) was 2750 M⁻¹ s⁻¹ and the kd (pAb anti-SEQ ID NO: 1) was 0.000318 s⁻¹.
